{"source": "patent US20080047904A1", "about": "“Treatment for Hydrostatic Testing Water” (priority 2004, published 2008)", "key": {"Medinia beryllina larvae": {"tested_on": "Medinia beryllina larvae", "assay": "48-hour acute LC50 assay, static renewal", "format": "in vivo", "protocol": "(§1) The test concentrations were prepared daily, and used immediately for test initiation and renewal. The total residual chlorine was measured in the highest concentration tested for each sample. The measured chlorine concentrations were used to calculate the estimated chlorine concentrations at the lower sample dilutions in these tests. Both range finder and definitive assays were conducted.\n(§2) A second set of experiments were conducted to mimic aged treated seawater. This attempted to model water that had been held in a pipeline for 24 hours, and then discharged. The experiments were identical to those described in the preceding paragraph, except that the highest test concentrations were prepared 24 hours before exposure to the test organisms. These same solutions were then used to prepare the 24 hour static renewal concentrations. The residual chlorine concentrations were measured when the test organisms were initially exposed to the toxic insult. These measurement were used to calculate the estimated chlorine concentrations at the lower sample dilutions in these tests, and after the static renewal at 24 hours."}, "[1]": {"tested_on": "Mysidopsis bahia juveniles", "assay": "48-hour acute LC50 assay, static renewal", "format": "in vivo", "protocol": "as §1, §2"}, "[2]": {"assay": "Reversion of phosphonate to orthophosphate by oxidizing biocides", "format": "physicochemical", "details": "10 ppm oxidant (as Cl2) dosed, pH 9.1, 23° C.", "protocol": "The biocides studied consisted of WELLGUARD® 7030, bleach (NaOCl), and activated sodium bromide (NaOCl and NaBr). The WELLGUARD® 7030 and bleach were added directly. Activated sodium bromide was prepared in situ by introducing 20 ppm bromide ion to the stock solution followed by addition of bleach. The phosphonates used in this work consisted of AMP (aminomethylene phosphonic acid), HEDP (hydroxyethylidene diphosphonic acid), and PBTC (phosphonobutanetricarboxylic acid). These materials were commercial samples (Mayoquest 1320, 1500, and 2100, respectively) obtained from Callaway Chemical Co. (Smyrna, Ga.).\nSolutions consisting of 5 ppm scale inhibitor (as active phosphonate) in the presence of 10 ppm oxidant (as Cl2) were prepared as follows. To 900 mL deionized water were added appropriate stock solutions containing phosphonate, alkalinity (NaHCO3), and calcium hardness (CaCl2). The pH was adjusted to 9.1 with 5% aq. NaOH and diluted up to 1 L in a dark amber bottle. A dose of oxidant was added to achieve a residual of 10 ppm. The solutions were then periodically monitored for phosphonate reversion by determining the reversion to orthophosphate (Hach method 490). The oxidant residual was also periodically monitored using the DPD method (Hach method 80). All of this work was performed at room temperature (23° C.). […]"}, "[3]": {"details": "aged: highest test concentrations prepared 24 hours before exposure"}, "[4]": {"details": "fresh test solutions, static renewal at 24 hours"}}, "data": [{"smiles": "[Na+].[O-]Cl", "note": "[Bleach, NaOCl]", "values": [{"measurement": "48-hour acute LC50", "setting": "Medinia beryllina larvae; [3]", "value": 0.50, "unit": "ppm as Cl2"}, {"measurement": "48-hour acute LC50", "setting": "Medinia beryllina larvae; [4]", "value": 0.57, "unit": "ppm as Cl2"}, {"measurement": "48-hour acute LC50", "setting": "[1]; [3]", "value": 0.42, "unit": "ppm as Cl2"}, {"measurement": "48-hour acute LC50", "setting": "[1]; [4]", "value": 0.34, "unit": "ppm as Cl2"}, {"measurement": "Cl2 (oxidant residual)", "setting": "[2]; 5 ppm AMP, 460 minutes", "value": 9.4, "unit": "ppm"}, {"measurement": "Cl2 (oxidant residual)", "setting": "[2]; 5 ppm HEDP, 400 minutes", "value": 10.6, "unit": "ppm"}]}]}
